# Reference: US9670549B2, “Gene expression signatures of neoplasm responsiveness to therapy” (The United States of America, as represented by the …, priority 2011, dated 2017)
# Legend:
# L363 cells = experiment: L363 cell viability after triapine and/or sirolimus; conditions: L363, 48 hour treatment
# Procedure: (§1) L363 cell viability after 48 hour treatment with triapine and/or sirolimus. Significance between treatments was determined by repeated measures ANOVA with the Bonferroni correction.
# RRM2, γH2AX = experiment: Western blot of L363 lysates for RRM2 and DNA damage marker; conditions: L363, 48 hours; sirolimus 10 nM, entinostat 0.5 μM, Triapine 1 μM
# Procedure: as §1
# [1] = system: cleaved PARP, BCL-xL, Survivin; experiment: Western blot of apoptosis proteins (U266, L363 lysates); format: cell-based, human; conditions: U266 or L363 lysates, 48 hours
# Procedure: In sequential experiments, the first agent listed was added 24 hours prior to the addition of the second agent.
# Western blot of control, single agent, and combination treated (D) L363 or (E) U266 cells at 48 hours.
# HDAC1 = HDAC1 (Homo sapiens, UniProt Q13547); conditions: cited from earlier work
# HDAC2 = HDAC2 (Homo sapiens, UniProt Q92769); conditions: cited from earlier work
# HDAC2, sequence (Q92769 whole entry): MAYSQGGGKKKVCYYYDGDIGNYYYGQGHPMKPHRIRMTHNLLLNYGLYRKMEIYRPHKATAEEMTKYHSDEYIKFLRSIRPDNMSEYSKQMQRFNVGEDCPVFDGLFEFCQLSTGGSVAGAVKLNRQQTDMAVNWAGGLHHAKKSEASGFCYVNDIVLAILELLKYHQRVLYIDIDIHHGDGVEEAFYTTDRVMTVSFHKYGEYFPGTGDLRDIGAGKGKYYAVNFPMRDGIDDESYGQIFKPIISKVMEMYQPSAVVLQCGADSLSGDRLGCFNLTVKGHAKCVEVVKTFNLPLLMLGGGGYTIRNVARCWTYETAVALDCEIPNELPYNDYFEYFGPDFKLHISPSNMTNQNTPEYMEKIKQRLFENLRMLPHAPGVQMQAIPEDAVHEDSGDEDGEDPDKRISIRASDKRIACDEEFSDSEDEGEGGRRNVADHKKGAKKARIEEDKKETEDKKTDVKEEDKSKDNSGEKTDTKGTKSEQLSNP
# HDAC1, sequence (Q13547 whole entry): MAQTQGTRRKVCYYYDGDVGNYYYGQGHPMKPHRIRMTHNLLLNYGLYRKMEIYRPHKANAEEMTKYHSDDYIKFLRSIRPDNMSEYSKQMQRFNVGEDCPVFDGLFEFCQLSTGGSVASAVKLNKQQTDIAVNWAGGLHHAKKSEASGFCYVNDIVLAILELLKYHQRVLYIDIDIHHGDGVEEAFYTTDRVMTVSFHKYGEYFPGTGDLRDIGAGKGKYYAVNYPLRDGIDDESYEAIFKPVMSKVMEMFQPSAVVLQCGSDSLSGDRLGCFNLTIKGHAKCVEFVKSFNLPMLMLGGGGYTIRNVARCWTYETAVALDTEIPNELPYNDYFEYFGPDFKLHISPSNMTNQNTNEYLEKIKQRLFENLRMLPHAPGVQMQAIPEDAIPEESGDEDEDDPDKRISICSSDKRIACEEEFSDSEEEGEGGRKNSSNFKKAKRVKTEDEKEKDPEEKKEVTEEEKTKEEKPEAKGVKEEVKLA
Structure (SMILES),MM cell viability (L363 cells),"DNA damage marker γH2AX (RRM2, γH2AX)",PARP cleavage [1],activity against HDAC1 (HDAC1),affinity for HDAC1 (HDAC1),activity for HDAC2 (HDAC2)
NC(=S)N/N=C/c1ncccc1N [triapine],inhibited MM cell viability,increased yH2AX,–,–,–,–
Nc1ccccc1NC(=O)c1ccc(CNC(=O)OCc2cccnc2)cc1 [entinostat],–,–,observed,strong activity,high affinity,weak activity
